The nature of data set [1]: Half life in rat liver microsomes at 1 uM measured up to 60 mins by LC-MS/MS analysis. Type of data set: ADME, Microsome. For orientation: Liver microsomes are vesicles of endoplasmic reticulum, rich in cytochrome P450 enzymes.
The nature of data set [2]: Plasma clearance in Beagle dog at 1 mg/kg, iv measured up to 24 hrs by LC-MS/MS analysis. Type of data set: ADME, organism-based, Canis lupus familiaris.
The nature of data set [3]: Half life in human liver microsomes at 1 uM measured up to 60 mins by LC-MS/MS analysis. Type of data set: ADME, Microsome.
The nature of data set [4]: Half life in dog liver microsomes at 1 uM measured up to 60 mins by LC-MS/MS analysis. Type of data set: ADME, Canis lupus familiaris, Microsome.
Data set [5] can be described thus: Plasma clearance in Wistar-Han rat at 1 mg/kg, iv measured up to 24 hrs by LC-MS/MS analysis. The data set is classed as ADME, organism-based.
Data set [6] in a line: Half life in human plasma at 1 uM incubated for 0 to 120 mins by LC-MS/MS method. The data set is classed as ADME, cell-free.
A short description of data set [7]: Half life in dog plasma at 1 uM incubated for 0 to 120 mins by LC-MS/MS method. Type of data set: ADME, cell-free, Canis lupus familiaris.
Data set [8] in a line: Half life in monkey plasma at 1 uM incubated for 0 to 120 mins by LC-MS/MS method. Type of data set: ADME, cell-free, Macaca mulatta. Particulars: rhesus monkey.
The target in data set [9] is cGMP-dependent 3',5'-cyclic phosphodiesterase (Homo sapiens, UniProt O00408). The experiment in a line: Inhibition of PDE2 (unknown origin).
Data set [10] is described as follows: Oral bioavailability in rat. Type of data set: ADME, organism-based. Particulars: in vivo.
Data set [11] is described as follows: Half life in rat plasma at 1 uM incubated for 0 to 120 mins by LC-MS/MS method. Type of data set: ADME, cell-free.
Data set [12] in a line: Protein binding in po or iv dosed rat plasma assessed as free fraction. Type of data set: ADME, organism-based.
Data set [13] can be described thus: Volume of distribution at steady state in po or iv dosed rat. The data set is classed as ADME, organism-based. To be noted: in vivo, read-out: Vdss.
A short description of data set [14]: Plasma clearance in po or iv dosed rat plasma. Type of data set: ADME, organism-based.
Data set [15] can be described thus: Elimination half life in po or iv dosed rat. The data set is classed as ADME, organism-based. To be noted: in vivo, read-out: beta t1/2 (converted).
The target of data set [16] is T1, Glucose-dependent insulinotropic receptor (Homo sapiens, UniProt Q8TDV5).
T1 sequence (Q8TDV5 whole entry): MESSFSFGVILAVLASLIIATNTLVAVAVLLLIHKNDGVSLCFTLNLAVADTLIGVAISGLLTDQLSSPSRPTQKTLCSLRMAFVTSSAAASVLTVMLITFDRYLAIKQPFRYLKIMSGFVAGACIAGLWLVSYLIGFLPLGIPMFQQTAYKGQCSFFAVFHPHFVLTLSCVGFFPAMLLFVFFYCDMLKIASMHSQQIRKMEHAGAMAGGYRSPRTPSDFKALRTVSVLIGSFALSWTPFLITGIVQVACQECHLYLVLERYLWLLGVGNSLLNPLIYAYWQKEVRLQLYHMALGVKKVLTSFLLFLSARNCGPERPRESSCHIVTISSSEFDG
Description: Agonist activity at human GPR119 expressed in HEK293 cells preincubated for 30 mins followed by d2 cAMP addition and measured after 60 mins by HTRF assay. The data set is classed as functional, cell-based. For orientation: In TR-FRET formats the signal depends on donor and acceptor labels being close together.

A short description of data set [17]: Half life in guinea pig plasma at 1 uM incubated for 0 to 120 mins by LC-MS/MS method. The data set is classed as ADME, cell-free, Cavia porcellus.
Data set [18] is described as follows: Drug metabolism in human liver microsomes assessed as peak area for GSH-EE-quinone conjugate formation at 10 uM measured after 60 mins in presence of NADPH by LC-MS/MS analysis. Type of data set: ADME, Microsome. To be noted: 1 h.
Data set [19] in a line: AUC(0 to infinity) in human carrying CYP3A5*1/*3 allele at 300 mg, po measured up to 32 hrs. The data set is classed as ADME, organism-based. Also noted: dose 300 mg, route oral, time infinity. To be noted: in vivo.
Data set [20] can be described thus: AUC(0 to infinity) in human carrying CYP3A5*1/*1 allele at 300 mg, po measured up to 32 hrs. The data set is classed as ADME, organism-based. Details: dose 300 mg, route oral, time infinity. To be noted: in vivo.
The nature of data set [21]: AUC(0 to infinity) in human carrying CYP3A5*3/*3 allele at 300 mg, po measured up to 32 hrs. Particulars: in vivo. Details: dose 300 mg, route oral, time infinity. Type of data set: ADME, organism-based.

Structures are written as SMILES. Where only a bound is given, the exact number is not on record here.

cGMP-dependent 3',5'-cyclic phosphodiesterase, sequence (O00408 whole entry): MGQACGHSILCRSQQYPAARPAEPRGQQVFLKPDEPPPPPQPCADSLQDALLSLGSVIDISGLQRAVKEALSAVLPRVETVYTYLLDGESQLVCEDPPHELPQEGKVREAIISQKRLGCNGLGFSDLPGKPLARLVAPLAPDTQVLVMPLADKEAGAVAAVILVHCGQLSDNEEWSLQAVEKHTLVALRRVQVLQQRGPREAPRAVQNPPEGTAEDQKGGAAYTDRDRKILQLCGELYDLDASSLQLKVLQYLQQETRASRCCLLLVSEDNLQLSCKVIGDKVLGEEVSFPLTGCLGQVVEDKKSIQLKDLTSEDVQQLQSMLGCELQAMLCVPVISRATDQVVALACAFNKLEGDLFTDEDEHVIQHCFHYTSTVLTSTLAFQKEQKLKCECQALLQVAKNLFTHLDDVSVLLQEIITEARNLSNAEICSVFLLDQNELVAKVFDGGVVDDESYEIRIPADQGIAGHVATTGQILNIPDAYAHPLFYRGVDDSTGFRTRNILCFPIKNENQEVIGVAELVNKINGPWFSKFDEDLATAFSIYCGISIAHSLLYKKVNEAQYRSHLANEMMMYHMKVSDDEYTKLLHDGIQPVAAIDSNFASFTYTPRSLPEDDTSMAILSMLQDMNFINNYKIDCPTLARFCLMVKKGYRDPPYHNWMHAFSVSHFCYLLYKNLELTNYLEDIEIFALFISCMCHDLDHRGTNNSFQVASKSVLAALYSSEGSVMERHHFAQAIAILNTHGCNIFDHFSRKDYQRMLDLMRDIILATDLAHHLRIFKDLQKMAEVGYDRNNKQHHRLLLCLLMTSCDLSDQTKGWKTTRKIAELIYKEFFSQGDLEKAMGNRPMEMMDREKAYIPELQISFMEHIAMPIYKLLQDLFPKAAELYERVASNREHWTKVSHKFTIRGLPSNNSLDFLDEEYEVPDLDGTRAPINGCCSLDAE

For `COc1ccc(-c2cc(=O)[nH]c(=S)n2CCO)c(OC)c1`, the half-life at 1 µM in data set [1] is 8.6 min; in data set [3], over 2 h; in [4] it was 0.187 h. In addition, the values for the clearance in data set [2] and in [5] were 12 mL/min/kg and 73 mL/min/kg, respectively.
On to `CC(C)OC(=O)N1CCN(c2ncc(-c3ccc4nccnc4c3)cc2C#N)CC1`, for which the half-life at 1 µM in data set [6], in data set [7] and in [8] was over 6.17 h throughout.
Broadly, the IC50 is the concentration that inhibits the measured activity by half. The molecule `CCc1ccc(-c2c(-c3nn(C)c4ncnc(N5CC(O)C5)c34)cnn2C)cc1` yielded an IC50 in data set [9] of 10 nM.
Molecule `CC(O)c1ccc(-c2c(-c3nn(C)c4ncnc(N5CCC5)c34)cnn2C)cc1` (centres undefined) registered an IC50 in data set [9] of 42 nM.
Broadly, the bioavailability is the share of a dose that reaches the circulation, judged against a reference dose that is usually intravenous. By fraction unbound is commonly meant free concentration divided by total concentration. The EC50 is the concentration giving half of the maximal effect. Take `Cc1cc(-c2ccc(N3CCC(c4nc(C(C)C)no4)CC3)nc2)c(C#N)cc1C#N`: the half-life at 1 µM in data set [6], in data set [11] and in data set [17] was over 6.17 h in each case. For the same molecule, the bioavailability in data set [10] came out at 70%. Also, the fraction unbound in data set [12] was found to be 0.03. In addition, the Vd in data set [13] is 3 L/kg. In data set [14], this molecule registered a clearance of 13.4 mL/min/kg. The half-life in data set [15] is 2.6 h. Moreover, in data set [16], the response was half-maximal at 1.7 nM (EC50).
For the molecule `C[C@H](Cc1ccc(F)c(F)c1)n1c(-c2ncccc2O)nc2ccnc(C(F)(F)F)c2c1=O`, the Activity in [18] worked out at 3000.
The same measure, in the same setting: as for `C[C@H](Cc1ccccc1)n1c(-c2ccccc2O)nc2ccnc(C(F)(F)F)c2c1=O`, the figure is 166810.
Usually AUC(0-inf) stands for the area under the concentration-time curve extrapolated to infinity. For the molecule `Cc1nnc(C(C)C)n1[C@@H]1C[C@H]2CC[C@@H](C1)N2CC[C@H](NC(=O)C1CCC(F)(F)CC1)c1ccccc1` [MARAVIROC], the results for the AUC(0-inf) in data set [19], in data set [20] and in data set [21] were 1760 ng·h/mL, 1240 ng·h/mL and 2100 ng·h/mL, respectively.

Values taken from ChEMBL document CHEMBL4613253, “Effective Application of Metabolite Profiling in Drug Design and Discovery” (J Med Chem, 2020).
